The results in this text go back to patent publication US20230348475A1, “IMIDAZOPYRIDAZINE AND IMIDAZOPYRAZINE COMPOUNDS AS INHIBITORS OF CDK7” (THE TRANSLATIONAL GENOMICS RESEARCH INSTITUTE, priority 2020, published 2023).

The structures appear in SMILES notation. Counter-ions that a name gives are not always drawn.

The target in this assay is CDK7/CycH/MAT1 (Homo sapiens, UniProt P50613). Kind of assay: Kinase Glo (ADP-Glo) biochemical assay, CDK7. To be noted: CDK7/CycH/MAT1 40 ng, ATP 1 μM, 60 minutes at RT, luminescence. The method, then: Materials: • Assay Buffer: 50 mM HEPES, 3 mM MgCl2, 3 mM MnCl2, 1 mM DTT, 3 μM Na3VO4, pH 7.5 • Substrate RB • CTF Peptide (ProQinase #: 0040-0000-6) • Enzymes • CDK7/CycH/MAT1 (ProQinase #: 0366-0360-4) • ADP-Glo™ Assay (Promega #: V9101) • ATP: 10 mM • ADP-Glo™ Reagent • Kinase Detection Reagent • 384-well white assay plates
Sequence of CDK7/CycH/MAT1 (P50613 whole entry): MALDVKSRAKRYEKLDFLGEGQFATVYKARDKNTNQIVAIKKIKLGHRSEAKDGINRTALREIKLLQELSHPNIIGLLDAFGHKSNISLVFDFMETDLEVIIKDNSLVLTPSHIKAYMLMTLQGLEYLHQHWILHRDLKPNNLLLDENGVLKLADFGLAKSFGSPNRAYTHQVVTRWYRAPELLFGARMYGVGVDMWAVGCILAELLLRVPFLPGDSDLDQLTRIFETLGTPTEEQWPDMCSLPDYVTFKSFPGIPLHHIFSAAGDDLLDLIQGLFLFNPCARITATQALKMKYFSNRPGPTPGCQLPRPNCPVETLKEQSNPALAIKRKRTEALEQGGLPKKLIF
Sequence of CDK7/CycH/MAT1 (P51946 whole entry partner): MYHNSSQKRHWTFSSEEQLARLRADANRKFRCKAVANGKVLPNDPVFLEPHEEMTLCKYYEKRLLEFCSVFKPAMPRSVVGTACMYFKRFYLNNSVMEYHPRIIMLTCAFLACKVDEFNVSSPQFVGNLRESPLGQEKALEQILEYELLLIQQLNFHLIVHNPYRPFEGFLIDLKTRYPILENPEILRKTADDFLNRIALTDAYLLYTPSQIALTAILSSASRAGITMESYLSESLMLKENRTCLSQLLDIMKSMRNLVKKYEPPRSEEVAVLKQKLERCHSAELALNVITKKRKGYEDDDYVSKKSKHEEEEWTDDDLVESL
Sequence of CDK7/CycH/MAT1 (P51948 whole entry partner): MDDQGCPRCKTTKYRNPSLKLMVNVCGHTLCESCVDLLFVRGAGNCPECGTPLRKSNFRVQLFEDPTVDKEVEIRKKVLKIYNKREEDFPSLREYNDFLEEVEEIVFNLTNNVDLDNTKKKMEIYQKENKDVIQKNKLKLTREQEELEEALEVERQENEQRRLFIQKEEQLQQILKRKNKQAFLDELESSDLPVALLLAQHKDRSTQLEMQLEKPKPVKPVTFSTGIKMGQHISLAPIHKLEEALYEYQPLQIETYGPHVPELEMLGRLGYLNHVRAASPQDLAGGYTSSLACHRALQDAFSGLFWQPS
A ten point serial dilution of compound was prepared at 5X concentration in assay buffer with the final assay concentrations starting at 30 μM, 10 μM, 3 μM, 1 μM . . . 0 μM. Enzyme, substrate, and ATP were used at 40 ng, 200 ng (or 400 ng)* and 1 μM, respectively. The assay plate was set up by mixing the components in a total reaction volume of 10 μL per well. The plate was centrifuged gently for 10 seconds and incubated at room temperature (RT) for 60 minutes in the dark. The ADP-Glo Reagent and kinase detection reagent were added and incubated as recommended. The reaction was quantified by measuring luminescence on the Perkin Elmer Envision plate reader.
`CN1CCC[C@H](Oc2cc(NCc3ccccc3)c3ncc(C4CC4)n3n2)C1` [Compound 11, (S)—N-benzyl-3-cyclopropyl-6-((1-methylpiperidin-3-yl)oxy)imidazo[1,2-b]pyridazin-8-amine] returned an IC50 of 100 to 1000 nM. As for `COc1ccccc1CNc1cc(OC2CCN(C)CC2)nn2c(C3CC3)cnc12` [Compound I-2], the figure is 100 to 1000 nM. As for `CC(C)c1cnc2c(Nc3cccc(F)c3)cc(OC3CCNCC3)nn12` [Compound 50, N-(3-fluorophenyl)-3-isopropyl-6-(piperidin-4-yloxy)imidazo[1,2-b]pyridazin-8-amine hydrochloride], the figure is 100 to 1000 nM; as for `O=C(N1CCC(Sc2cc(NCc3ccccc3)c3ncc(C4CC4)n3n2)CC1)C(F)(F)F` [Compound 20, 1-(4-((8-(benzylamino)-3-cyclopropylimidazo[1,2-b]pyridazin-6-yl)thio)piperidin-1-yl)-2,2,2-trifluoroethan-1-one], over 1000 nM.

`CN1CCC[C@H](Nc2cc(NCc3ccccc3)c3ncc(C4CC4)n3n2)C1` [Compound 16, (S)-N8-benzyl-3-cyclopropyl-N6-(1-methylpiperidin-3-yl)imidazo[1,2-b]pyridazine-6,8-diamine] registered an IC50 of 100 to 1000 nM. In turn, `c1ccc(CNc2cc(OC3CCNCC3)nn3c(C4CC4)cnc23)cc1` [Compound 14, N-benzyl-3-cyclopropyl-6-(piperidin-4-yloxy)imidazo[1,2-b]pyridazin-8-amine] displayed an IC50 of 100 to 1000 nM. In turn, `CC(C)c1cnc2c(NCc3ccc(F)cc3C(F)(F)F)cc(SC3CCNCC3)nn12` [Compound 80, N-(4-fluoro-2-(trifluoromethyl)benzyl)-3-isopropyl-6-(piperidin-4-ylthio)imidazo[1,2-b]pyridazin-8-amine hydrochloride] yielded an IC50 of 100 to 1000 nM. As for `CC(C)c1cnc2c(NCc3ccccc3OC(F)(F)F)cc(OC3CCNCC3F)nn12` (stereo not shown) [Compound 69, 6-((3-fluoropiperidin-4-yl)oxy)-3-isopropyl-N-(2-(trifluoromethoxy)benzyl)imidazo[1,2-b]pyridazin-8-amine hydrochloride], the figure is 100 to 1000 nM; as for `CN1CC[C@@H](Oc2cc(NCc3ccccc3)c3ncc(C4CC4)n3n2)C1` [Compound 10, (R)—N-benzyl-3-cyclopropyl-6-((1-methylpyrrolidin-3-yl)oxy)imidazo[1,2-b]pyridazin-8-amine], 100 to 1000 nM. As for `CC(C)c1cnc2c(NCc3ccccc3OC(F)(F)F)cc(OC3CCNCC3(F)F)nn12` (stereo not shown) [Compound 71, 6-((3,3-difluoropiperidin-4-yl)oxy)-3-isopropyl-N-(2-(trifluoromethoxy)benzyl)imidazo[1,2-b]pyridazin-8-amine hydrochloride], the figure is over 1000 nM; as for `CC(C)c1cnc2c(NCc3ccccc3)cc(S[C@H]3CCCNC3)nn12` (single isomer, unassigned) [Compound 42, hydrochloride], under 100 nM. As for `c1ccc(CNc2nc(SC3CCNCC3)cn3c(C4CC4)cnc23)cc1` [Compound 21, N-benzyl-3-cyclopropyl-6-(piperidin-4-ylthio)imidazo[1,2-α]pyrazin-8-amine formate salt], the figure is 100 to 1000 nM; as for `CC(C)c1cnc2c(NCc3cccc(OC(F)(F)F)c3)cc(SC3CCNCC3)nn12` [Compound 54, 3-isopropyl-6-(piperidin-4-ylthio)-N-(3-(trifluoromethoxy)benzyl)imidazo[1,2-b]pyridazin-8-amine hydrochloride], under 100 nM; as for `CN1CCC(Oc2cc(Nc3cccc(F)c3)c3ncc(C4CC4)n3n2)CC1` [Compound 2, 3-cyclopropyl-N-(3-fluorophenyl)-6-((1-methylpiperidin-4-yl)oxy)imidazo[1,2-b]pyridazin-8-amine], 100 to 1000 nM.

As for `CC(C)c1cnc2c(NCc3c(F)cccc3F)cc(SC3CCNCC3)nn12` [Compound 52, N-(2,6-difluorobenzyl)-3-isopropyl-6-(piperidin-4-ylthio)imidazo[1,2-b]pyridazin-8-amine hydrochloride], the IC50 is under 100 nM.

In the case of `COc1cc(F)ccc1CNc1cc(SC2CCCNC2)nn2c(C(C)C)cnc12` (stereo not shown) [Compound 79, N-(4-fluoro-2-methoxybenzyl)-3-isopropyl-6-(piperidin-3-ylthio)imidazo[1,2-b]pyridazin-8-amine formate], the IC50 lay in the range of 100 to 1000 nM.

For `CN1CCC(Oc2cc(NCc3ccccc3)c3ncc(C4CC4)n3n2)CC1` [Compound 15, N-benzyl-3-cyclopropyl-6-((1-methylpiperidin-4-yl)oxy)imidazo [1,2-b] pyridazin-8-amine], the IC50 was 100 to 1000 nM. As for `CC(C)c1cnc2c(NCc3ccccc3-n3cccn3)nc(SC3CCCNC3)cn12` (stereo not drawn) [Compound 68, N-(2-(1H-pyrazol-1-yl)benzyl)-3-isopropyl-6-(piperidin-3-ylthio)imidazo[1,2-α]pyrazin-8-amine hydrochloride], the figure is under 100 nM; as for `CC(C)Oc1ccccc1CNc1cc(SC2CCNCC2)nn2c(C(C)C)cnc12` [Compound 67, N-(2-isopropoxybenzyl)-3-isopropyl-6-(piperidin-4-ylthio)imidazo[1,2-b]pyridazin-8-amine hydrochloride], under 100 nM.

`Fc1cccc(Nc2cc(O[C@H]3CCCNC3)nn3c(C(F)(F)F)cnc23)c1` [Compound 82, (S)-N-(3-fluorophenyl)-6-(piperidin-3-yloxy)-3-(trifluoromethyl)imidazo[1,2-b]pyridazin-8-amine hydrochloride]: the 50% inhibitory concentration (IC50) is under 100 nM. In turn, `CC(C)c1cnc2c(NCc3ccccc3OC(F)(F)F)cc(SC3CCNCC3(F)F)nn12` (stereo not shown) [Compound 76, 6-((3,3-difluoropiperidin-4-yl)thio)-3-)isopropyl-N-(2-(trifluoromethoxy)benzyl)imidazo[1,2-b]pyridazin-8-amine hydrochloride] came in with an IC50 of 100 to 1000 nM.

`CC(C)c1cnc2c(NCc3ccccc3OC(F)(F)F)cc(OC[C@@H]3CNCCO3)nn12` [Compound 49, (S)-3-isopropyl-6-(morpholin-2-ylmethoxy)-N-(2-(trifluoromethoxy)benzyl)imidazo[1,2-b]pyridazin-8-amine hydrochloride] gave an IC50 of 100 to 1000 nM. The compound `CN1CC[C@H](Oc2cc(NCc3ccccc3)c3ncc(C4CC4)n3n2)C1` [Compound 8, (S)—N-benzyl-3-cyclopropyl-6-((1-methylpyrrolidin-3-yl)oxy)imidazo[1,2-b]pyridazin-8-amine] returned an IC50 of 100 to 1000 nM. `COC(=O)[C@@H](N)CSc1cc(NCc2ccccc2)c2ncc(C3CC3)n2n1` [Compound 30, methyl S-(8-(benzylamino)-3-cyclopropylimidazo[1,2-b]pyridazin-6-yl)-L-cysteinate hydrochloride] yielded an IC50 of 100 to 1000 nM. `CC(C)c1cnc2c(NCc3ccccc3OC(F)(F)F)cc(SC3CCNCC3F)nn12` (stereo not shown) [Compound 74, 6-((3-fluoropiperidin-4-yl)thio)-3-isopropyl-N-(2-(trifluoromethoxy)benzyl)imidazo[1,2-b]pyridazin-8-amine hydrochloride] had an IC50 of 100 to 1000 nM. The figure for `CC(C)c1cnc2c(NCc3cccc(C(F)(F)F)c3)cc(SC3CCNCC3)nn12` [Compound 55, 3-isopropyl-6-(piperidin-4-ylthio)-N-(3-(trifluoromethyl)benzyl)imidazo[1,2-b]pyridazin-8-amine hydrochloride] is under 100 nM; for `CN1CC[C@@H](Oc2cc(Nc3cccc(F)c3)c3ncc(C4CC4)n3n2)C1` [Compound 3, (R)-3-cyclopropyl-N-(3-fluorophenyl)-6-((1-methylpyrrolidin-3-yl)oxy)imidazo[1,2-b]pyridazin-8-amine] it is 100 to 1000 nM. The figure for `CC(C)c1cnc2c(N[C@@H](C)c3ccccc3)cc(OC3CCNCC3)nn12` [Compound 27, hydrochloride] is 100 to 1000 nM; for `CN1CCC[C@@H](Oc2cc(Nc3cccc(F)c3)c3ncc(C4CC4)n3n2)C1` [Compound 4, (R)-3-cyclopropyl-N-(3-fluorophenyl)-6-((1-methylpiperidin-3-yl)oxy)imidazo[1,2-b]pyridazin-8-amine] it is over 1000 nM; for `c1ccc(CNc2cc(O[C@H]3CCNC3)nn3c(C4CC4)cnc23)cc1` [Compound 12, (S)—N-benzyl-3-cyclopropyl-6-(pyrrolidin-3-yloxy)imidazo[1,2-b]pyridazin-8-amine] it is 100 to 1000 nM.

As to `CC(C)c1cnc2c(Nc3ccccc3OC(F)(F)F)cc(SC3CCCNC3)nn12` (stereo not shown) [Compound 60, 3-isopropyl-6-(piperidin-3-ylthio)-N-(2-(trifluoromethoxy)phenyl)imidazo[1,2-b]pyridazin-8-amine hydrochloride], the IC50 was in the range of 100 to 1000 nM. The figure for `CCOc1ccccc1CNc1cc(SC2CCNCC2)nn2c(C(C)C)cnc12` [Compound 65, N-(2-ethoxybenzyl)-3-isopropyl-6-(piperidin-4-ylthio)imidazo[1,2-b]pyridazin-8-amine hydrochloride] is under 100 nM; for `CC(C)c1cnc2c(NCc3ccccc3)cc(NC[C@H]3CCCNC3)nn12` [Compound I-4] it is 100 to 1000 nM. `COc1ccccc1CNc1cc(SC2CCNCC2(F)F)nn2c(C(C)C)cnc12` (stereo not shown) [Compound 75, 6-((3,3-difluoropiperidin-4-yl)thio)-3-isopropyl-N-(2-methoxybenzyl)imidazo[1,2-b]pyridazin-8-amine hydrochloride] had an IC50 of 100 to 1000 nM.
